Measured values reported in PubChem BioAssay (NCI).
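Assay format: 96-well plates, 48-hour exposure. Definition used: TGI = concentration required for complete inhibition of growth.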

How the values were obtained:
Experiment in all cases: growth of human tumour cells (NCI), 48 h
PC-3 prostate = tested on: PC-3 prostate
MALME-3M melanoma = tested on: MALME-3M melanoma
OVCAR-4 ovarian = tested on: OVCAR-4 ovarian
U251 CNS = tested on: U251 CNS
SK-MEL-2 melanoma = tested on: SK-MEL-2 melanoma
OVCAR-3 ovarian = tested on: OVCAR-3 ovarian
SR leukemia = tested on: SR leukemia
HCT-15 colon = tested on: HCT-15 colon
HCT-116 colon = tested on: HCT-116 colon
SNB-19 CNS = tested on: SNB-19 CNS
MDA-MB-435 = tested on: MDA-MB-435
RPMI-8226 leukemia = tested on: RPMI-8226 leukemia
SK-OV-3 ovarian = tested on: SK-OV-3 ovarian
TK-10 renal = tested on: TK-10 renal
SF-295 CNS = tested on: SF-295 CNS
M14 melanoma = tested on: M14 melanoma
IGROV1 ovarian = tested on: IGROV1 ovarian
HS 578T breast = tested on: HS 578T breast
BT-549 breast = tested on: BT-549 breast
K-562 leukemia = tested on: K-562 leukemia
ACHN renal = tested on: ACHN renal
MDA-N = tested on: MDA-N
SN12C renal = tested on: SN12C renal
SK-MEL-28 melanoma = tested on: SK-MEL-28 melanoma
RXF 393 renal = tested on: RXF 393 renal
CAKI-1 renal = tested on: CAKI-1 renal
NCI-H226 lung = tested on: NCI-H226 lung
SNB-75 CNS = tested on: SNB-75 CNS
HOP-62 NSCLC = tested on: HOP-62 NSCLC
OVCAR-8 ovarian = tested on: OVCAR-8 ovarian
SW-620 colon = tested on: SW-620 colon
HCC-2998 colon = tested on: HCC-2998 colon
COLO 205 colon = tested on: COLO 205 colon
NCI/ADR-RES ovarian = tested on: NCI/ADR-RES ovarian
MCF7 breast = tested on: MCF7 breast
MDA-MB-231 breast = tested on: MDA-MB-231 breast
786-0 renal = tested on: 786-0 renal
NCI-H460 lung = tested on: NCI-H460 lung
NCI-H522 lung = tested on: NCI-H522 lung
NCI-H23 lung = tested on: NCI-H23 lung
A498 renal = tested on: A498 renal
MOLT-4 leukemia = tested on: MOLT-4 leukemia
UACC-62 melanoma = tested on: UACC-62 melanoma
DU-145 prostate = tested on: DU-145 prostate
CCRF-CEM leukemia = tested on: CCRF-CEM leukemia
LOX IMVI melanoma = tested on: LOX IMVI melanoma
HL-60(TB) leukemia = tested on: HL-60(TB) leukemia
HT29 colon = tested on: HT29 colon
HOP-92 NSCLC = tested on: HOP-92 NSCLC
KM12 colon = tested on: KM12 colon
T-47D breast = tested on: T-47D breast
OVCAR-5 ovarian = tested on: OVCAR-5 ovarian
EKVX NSCLC = tested on: EKVX NSCLC
SF-268 CNS = tested on: SF-268 CNS
SF-539 CNS = tested on: SF-539 CNS
UO-31 renal = tested on: UO-31 renal
UACC-257 melanoma = tested on: UACC-257 melanoma
SK-MEL-5 melanoma = tested on: SK-MEL-5 melanoma
A549 NSCLC = tested on: A549 NSCLC

Cc1cc(N(CCC#N)CCC#N)ccc1/C=N/NC(=O)c1ccccc1 gave a TGI (PC-3 prostate) of over 100 µM, a TGI (MALME-3M melanoma) of over 100 µM and a TGI (OVCAR-4 ovarian) of over 100 µM. The TGI (U251 CNS) was over 100 µM, the TGI (SK-MEL-2 melanoma) was over 100 µM and the TGI (OVCAR-3 ovarian) was over 84 µM. For the same compound, the TGI (SR leukemia) was over 43.2 µM, the TGI (HCT-15 colon) was over 100 µM and the TGI (HCT-116 colon) was over 92.6 µM. It also gave a TGI (SNB-19 CNS) of over 100 µM, a TGI (MDA-MB-435) of over 38.9 µM and a TGI (RPMI-8226 leukemia) of over 100 µM. The TGI (SK-OV-3 ovarian) was over 100 µM, the TGI (TK-10 renal) was over 100 µM and the TGI (SF-295 CNS) was over 100 µM. It also gave a TGI (M14 melanoma) of over 100 µM, a TGI (IGROV1 ovarian) of over 100 µM and a TGI (HS 578T breast) of over 56.5 µM. The TGI (BT-549 breast) was over 100 µM, the TGI (K-562 leukemia) was over 100 µM and the TGI (ACHN renal) was over 100 µM. For the same compound, the TGI (MDA-N) was 10.6 µM, the TGI (SN12C renal) was over 100 µM and the TGI (SK-MEL-28 melanoma) was over 100 µM. The TGI (RXF 393 renal) was over 100 µM, the TGI (CAKI-1 renal) was over 100 µM and the TGI (NCI-H226 lung) was 84.1 µM. The TGI (SNB-75 CNS) was over 100 µM, the TGI (HOP-62 NSCLC) was over 100 µM and the TGI (OVCAR-8 ovarian) was over 82.8 µM. For the same compound, the TGI (SW-620 colon) was over 100 µM, the TGI (HCC-2998 colon) was 55.1 µM and the TGI (COLO 205 colon) was over 100 µM. The TGI (NCI/ADR-RES ovarian) was 36.1 µM, the TGI (MCF7 breast) was over 100 µM and the TGI (MDA-MB-231 breast) was over 81.3 µM. The TGI (786-0 renal) was over 100 µM, the TGI (NCI-H460 lung) was over 100 µM and the TGI (NCI-H522 lung) was 39.3 µM. It also gave a TGI (NCI-H23 lung) of over 100 µM, a TGI (A498 renal) of 65.4 µM and a TGI (MOLT-4 leukemia) of over 100 µM. For the same compound, the TGI (UACC-62 melanoma) was over 100 µM, the TGI (DU-145 prostate) was over 86.2 µM and the TGI (CCRF-CEM leukemia) was 98.1 µM. For the same compound, the TGI (LOX IMVI melanoma) was over 100 µM, the TGI (HL-60(TB) leukemia) was over 27.2 µM and the TGI (HT29 colon) was 14.2 µM. It also gave a TGI (HOP-92 NSCLC) of over 100 µM, a TGI (KM12 colon) of over 100 µM and a TGI (T-47D breast) of over 100 µM. The TGI (OVCAR-5 ovarian) was over 100 µM, the TGI (EKVX NSCLC) was over 100 µM and the TGI (SF-268 CNS) was over 100 µM. For the same compound, the TGI (SF-539 CNS) was 47.5 µM, the TGI (UO-31 renal) was over 100 µM and the TGI (UACC-257 melanoma) was over 100 µM. The TGI (SK-MEL-5 melanoma) was over 100 µM and the TGI (A549 NSCLC) was over 100 µM.
Cc1ccc(NC(=O)CC(=O)N2N=C(N(C)c3ccccc3)CC2c2ccccc2)cc1 (stereo not drawn) showed a TGI (PC-3 prostate) of over 100 µM, a TGI (MALME-3M melanoma) of over 100 µM and a TGI (OVCAR-4 ovarian) of over 100 µM. For the same compound, the TGI (U251 CNS) was over 100 µM, the TGI (SK-MEL-2 melanoma) was over 100 µM and the TGI (OVCAR-3 ovarian) was over 100 µM. For the same compound, the TGI (SR leukemia) was over 100 µM, the TGI (HCT-15 colon) was over 100 µM and the TGI (HCT-116 colon) was over 100 µM. It also gave a TGI (SNB-19 CNS) of over 100 µM, a TGI (MDA-MB-435) of over 100 µM and a TGI (RPMI-8226 leukemia) of over 100 µM. It also gave a TGI (SK-OV-3 ovarian) of over 100 µM, a TGI (TK-10 renal) of over 100 µM and a TGI (SF-295 CNS) of over 100 µM. It also gave a TGI (M14 melanoma) of over 100 µM, a TGI (IGROV1 ovarian) of over 100 µM and a TGI (HS 578T breast) of over 100 µM. The TGI (BT-549 breast) was over 100 µM, the TGI (K-562 leukemia) was over 100 µM and the TGI (ACHN renal) was over 100 µM. For the same compound, the TGI (MDA-N) was over 100 µM, the TGI (SN12C renal) was over 100 µM and the TGI (SK-MEL-28 melanoma) was over 100 µM. The TGI (RXF 393 renal) was over 100 µM, the TGI (CAKI-1 renal) was over 100 µM and the TGI (NCI-H226 lung) was over 100 µM. It also gave a TGI (SNB-75 CNS) of 77.9 µM, a TGI (HOP-62 NSCLC) of over 100 µM and a TGI (OVCAR-8 ovarian) of over 100 µM. The TGI (SW-620 colon) was over 100 µM, the TGI (HCC-2998 colon) was over 100 µM and the TGI (COLO 205 colon) was over 100 µM. For the same compound, the TGI (NCI/ADR-RES ovarian) was over 100 µM, the TGI (MCF7 breast) was over 100 µM and the TGI (MDA-MB-231 breast) was over 100 µM. For the same compound, the TGI (786-0 renal) was over 100 µM, the TGI (NCI-H460 lung) was over 100 µM and the TGI (NCI-H522 lung) was over 100 µM. It also gave a TGI (NCI-H23 lung) of over 100 µM, a TGI (A498 renal) of over 100 µM and a TGI (MOLT-4 leukemia) of over 100 µM. The TGI (UACC-62 melanoma) was over 100 µM, the TGI (DU-145 prostate) was over 100 µM and the TGI (CCRF-CEM leukemia) was over 100 µM. It also gave a TGI (LOX IMVI melanoma) of over 100 µM, a TGI (HL-60(TB) leukemia) of over 100 µM and a TGI (HT29 colon) of over 100 µM. The TGI (HOP-92 NSCLC) was over 100 µM, the TGI (KM12 colon) was over 100 µM and the TGI (T-47D breast) was over 100 µM. The TGI (OVCAR-5 ovarian) was over 100 µM, the TGI (EKVX NSCLC) was over 100 µM and the TGI (SF-268 CNS) was over 100 µM. For the same compound, the TGI (SF-539 CNS) was over 100 µM, the TGI (UO-31 renal) was over 100 µM and the TGI (UACC-257 melanoma) was over 100 µM. It also gave a TGI (SK-MEL-5 melanoma) of over 100 µM and a TGI (A549 NSCLC) of over 100 µM.
